# In EP4076430B1, “A METHOD OF TREATING NONALCOHOLIC STEATOHEPATITIS” (Vector Vitale IP LLC, priority 2019, dated 2021):
# “And” between values parts separate entries of the source, which are not always exact repeats. Equal entries are not always repeated. “Also recorded” adds a separate entry of the source.
# Key:
# [1] = Glucose tolerance test; type: in vivo, rats; parameters: Glucose, 0 min (1 h after effector administration): unit not given here; conditions: for glucose levels in the glucose tolerance test compared with the control group: 5 mg/kg in 2 ml, glucose 3 g/kg
# Source text: 5 animals were used within the same experimental group.
# [2] = test system: lipid metabolism; test: Serum triglycerides, cholesterol and free fatty acids in obesity model; type: in vivo, rats; conditions: high-fat diet, 2.25 mg/ml zinc aspartate intragastrically in 2 ml
# Source text: To this end, high-fat diet obesity was induced in experimental animals as described in Example 2.
# [3] = test system: products of oxidative modification of proteins; test: Serum levels of products of oxidative modification of proteins in obesity model; type: in vivo, rats; conditions: DIO+zinc: high-fat diet, intragastrically every third day
# Experimental: (§1) Animal serum was prepared from whole blood. […] Samples were centrifuged for 15 min at 2500 g.
# Proteins were precipitated by adding a 20% TCA solution.
# [4] = test system: pro- and anti-inflammatory cytokines; test: Serum cytokine profile in obesity model (immunoenzyme method); type: in vivo, rats; conditions: intragastrically every third day
# Experimental: as §1
# [5] = test system: pro- and anti-inflammatory cytokines; test: Cytokine profile in adipose tissue in obesity model (immunoenzyme method); type: in vivo, rats; conditions: intragastrically every third day
# Experimental: Adipose tissue was crushed using cold scissors then transferred to a homogenizer with a loose-fitting Teflon pestle. […] Primary homogenate thus obtained was centrifuged at 600 g for 15 minutes. The supernatant was carefully collected and re-centrifuged at 15,000 g for 15 minutes. The supernatant was then frozen and stored at -80°C until the experiments.
# The antigen solution, previously diluted with 0.1 M NaHCO3 buffer, pH 9.6, to a concentration of 10 µg/ml, was incubated in the plate wells for 12 hours at 4°C. Unbound material was removed by washing the wells three times with TBS buffer, first with 0.05% Tween-20, then without Tween-20. Non-specific binding sites were blocked by adding a solution of 5% skim milk or a solution of 1% bovine serum albumin to the plate wells and incubating them for 60 minutes at 37°C. After incubation, the wells were washed three times with TBS, first with 0.05% Tween-20, then without Tween-20. Primary antibodies were diluted in TBS in accordance with the manufacturer's instructions and incubated with the antigen for 60 min at 37°C. After washing with TBS working buffer, first with the addition of 0.05% Tween-20, then without Tween-20, the conjugate of secondary antibodies was added to the wells and incubated for 60 min at 37°C. As with the primary antibodies, secondary antibodies were diluted in TBS in accordance with the manufacturer's instructions. After the washing procedure, phenyldiamine dihydrochloride as substrate in 0.05M phosphate-citrate buffer was added to each well, followed by the addition of 0.3% hydrogen peroxide. After 10 minutes, the reaction time needed for development, 2.5 n H2SO4 was added.
# The absorbance at a wavelength of 492 nm was measured using a µQuant microplate spectrophotometer (BioTek Instruments).
# [6] = test system: alkaline phosphatase; test: Serum alkaline phosphatase activity in obesity model; type: in vivo; conditions: high-fat diet rats treated
# Source text: (§2) Test kit // Pliva-Lachema Diagnostika. - 2008.
# The alkaline phosphatase activity was expressed in relative units.
# [7] = Serum albumin in obesity model; type: in vivo, rats; conditions: obese animals treated
# Source text: as §2
# [8] = Serum glucose concentration in obesity model; type: in vivo, rats; conditions: intragastrically every third day
# Source text: The glucose concentration was expressed in mmol/L.
# [9] = test system: pancreas; test: Morpho-functional analysis of pancreatic tissue in obesity model; type: in vivo, rats
# Source text: After fixation, the pieces were rinsed in tap water. Then the material was dehydrated.
# Dried preparations were stained with hematoxylin and eosin.
# [10] = test system: peripheral serotonergic system (duodenum); test: Indicators of the peripheral serotonergic system in duodenal homogenate, obesity model; type: in vivo, rats; conditions: intragastrically every third day
# Source text: (§3) The tissue : buffer ratio was 1:10.
# (§4) The samples were reprecipitated by centrifugation. […]
# (§5) The supernatant was used in further studies.
# [11] = test system: tryptophan, serotonin, monoamine oxidase; test: Serum tryptophan, serotonin and monoamine oxidase activity, obesity model; type: in vivo, rats; conditions: intragastrically every third day
# Experimental: as §1
# The samples were reprecipitated by centrifugation.
# University. Medicine. - 2000. - 1, No. 494. - P. 40-43.
# [12] = test system: central serotonergic system (brain); test: Indicators of the central serotonergic system in brain homogenate, obesity model; type: in vivo, rats; conditions: intragastrically every third day
# Source text: as §3, §4, §5
# [13] = test system: superoxide dismutase; test: Serum superoxide dismutase activity, obesity model; type: in vivo, rats; conditions: DIO+zinc: high-fat diet, intragastrically every third day
# Experimental: To measure superoxide dismutase activity, a method based on the ability of this enzyme to inhibit auto-oxidation of adrenaline was used.
# Serum aliquots were added to microplate wells containing 0.2M bicarbonate buffer, pH 10. The reaction was initiated by adding 0.1% adrenaline solution in each well. A relevant volume of buffer was added to the "blank" wells to which no test sample was added. The optical density was measured at a wavelength of 347 nm using a µQuant microplate spectrophotometer (BioTek Instruments) at the 4th and 8th minute after adrenaline was added to the wells. The enzyme activity was expressed in relative units/min/mg.
# [14] = test system: catalase; test: Serum catalase activity, obesity model; type: in vivo, rats; conditions: DIO+zinc: high-fat diet, intragastrically every third day
# Source text: Korolyuk M.A. et al., Lab. Business. - 1988. - No. 1. - P. 44-67.
# [15] = test system: insulin; test: Serum insulin level after intraperitoneal administration (ELISA); type: in vivo; conditions: intact rats, 3750 µg of zinc per 1 kg, 7 injections every other day
# Experimental: The current dose was calculated by zinc.
# The optical density was measured at 492 nm.
# [16] = Body weight after intraperitoneal administration; type: in vivo; conditions: intact rats, 3750 µg of zinc per 1 kg, 7 injections every other day
# Experimental: (§6) Animals are placed in cages, 4 per cage, with free access to food/water. […] Administration is performed every other day, in the amount of 7 injections per animal (intraperitoneal method of drug administration). The dose of the drug injected to each animal was calculated on the basis of the ratio: 3750 µg of zinc per 1 kg of animal body weight. After the last injection, a half of the animals are maintained on hunger (for 12 hours) with free access to water. Upon expiration of this time period, the animals are taken out of the experiment. The second half of the animals continues to have free access to food/water for a further 7 days. On day 6 after the last injection, the animals are maintained on hunger (for 12 hours) with free access to water. Upon expiration of this time period, the animals are taken out of the experiment.
# [17] = test system: islets of Langerhans; test: Area of islets of Langerhans after intraperitoneal administration (microscopy); type: in vivo; conditions: intact rats, 3750 µg of zinc per 1 kg, day 7 after the last administration
# Experimental: as §6
# [18] = Accumulation of metals in liver and kidney tissues after intraperitoneal administration; type: in vivo, rats; conditions: day 1 and day 7 after discontinuation of the substances
# Experimental: The total kidney, liver and muscle homogenates were prepared as follows. Organ excision and homogenization were carried out at a temperature of 1-4°C. Homogenization of tissues was carried out in 50 mM Tris-HCl buffer (pH 7.4) which contained 140 mM NaCl, 1 mM EDTA. The volume of the used buffer in ml was 5 times larger than the mass of isolated organs in grams. The isolated liver was perfused with chilled saline (0.9% NaCl) via the portal vein using a syringe. The minced liver was transferred to a homogenizer with a finely ground Teflon pestle and homogenized in chilled buffer. An isolated pair of kidneys was perfused with chilled saline, released from adipose tissue and minced with scissors. The minced tissue was transferred to a homogenizer with a finely ground Teflon pestle and homogenized in chilled buffer. The total kidney and liver homogenates were centrifuged at 600 g for 15 minutes. The liquid was decanted after the mince settled down and was centrifuged again at 15,000 g for 15 minutes. These two procedures allowed us to get rid of nuclear and mitochondrial debris. Aliquots of the prepared homogenates were frozen in nitrogen (Rybalchenko V.K., Koganov M.M. Structure and function of membrane 1988. - 312 pp).
# [19] = test system: liver; test: Morpho-functional analysis of liver tissue (hepatocyte morphometry, fibrosis) in obesity model; type: in vivo, rats; conditions: Van Gieson's staining
# [20] = Anthropometric values, amount and calorie content of food in high-fat diet induced obesity; conditions: 4.5 mg zinc aspartate intragastrically every third day; for BMI: week 10
# Experimental: White non-pedigree rats with an initial weight of 195-205±10 g were used in the experiment. The animals were maintained in an accredited vivarium of the Academic and Research Center "Institute of Biology and Medicine" of Taras Shevchenko National University of Kyiv in accordance with the Standard rules on the arrangement, equipment and maintenance of experimental biological clinics (vivariums). The study was carried out in compliance with international standards and recommendations of the European Convention for the Protection of Vertebrate Animals used for Experimental and other Scientific Purposes (Strasbourg, 18/03/1986) and approved by the Bioethics Commission of the Academic and Research Center "Institute of Biology and Medicine".
# Before the start of the experiment, animals were maintained on a standard diet of the vivarium. To induce obesity in experimental animals, they were fed high-fat diet which consisted of standard feed (60%), lard (10%), chicken eggs (10%), sucrose (9%), peanuts (5%), dry milk (5%) and sunflower oil (1%) (1%) (see X. H. Shen et al., Exp. Biol. and Med. 235: 47-51 (2010)). […] For the preparation of composition claimed standard Dulbecco's phosphate-buffered saline from (specified a manufacturer) (based on deuterium-depleted water Langway) as a diluent (liquid vehicle) was used.
# Animals in all groups were weighed once a week after an overnight fast. The amount of feed to be consumed by the animals was determined daily. At the end of a 10-week period of the development of obesity models, 24 hours after the last administration of the zinc isotope solution, animals were removed from their cages and decapitated.
# The body mass index (BMI) (the ratio of body weight (g) to the square of body length (cm^2)) was calculated at the end of the experiment.
# Animals with an initial weight of 195-205±10 g maintained on the standard diet of the vivarium before performing obesity models were used in the experiments. To induce obesity in experimental animals, they were fed high-fat diet which consisted of standard feed (60%), lard (10%), chicken eggs (10%), sucrose (9%), peanuts (5%), dry milk (5%) and sunflower oil (1%), Shen X. et al., Experimental Biology and Medicine. - 2010. - ? […] The first 4 weeks of the experiment, all animals were maintained on a high-fat diet, after which they were randomly divided into two experimental groups: • animals in the first group (obesity) continued to eat their high-fat diet and had free access to water for the next 6 weeks of the experiment. • animals in the second group (obesity + solution of Zn-64 stable isotope in aspartate form) also followed their high-fat diet and had free access to water for the next 6 weeks of the experiment. But every third day and until the end of the experiment they were intragastrically administered a solution of Zn-64 stable isotope in aspartate form.
# Animals in all groups were weighed once a week after an overnight fast. The amount of feed to be consumed by the animals was determined daily.
compound,measurement,setting,value
"N[C@@H](CC(=O)[O-])C(=O)[O-].[Zn+2] [^64Zne, zinc aspartate]",glucose levels in the glucose tolerance test compared with the control group,[1]; listed as zinc isotope,drop in glucose concentration; also recorded: decrease in glucose levels
same,glucose levels in the glucose tolerance test compared with the control group,[1]; listed as zinc isotope ^64Zn,significant decrease in glucose levels
same,"levels of triglycerides, cholesterol and free fatty acids in the serum",[2],almost at the same level as in the control group
same,Aldehyde-dinitrophenyl-hydrazones,[3],0.253±0.012 nmol/mg protein
same,Ketone-dinitrophenyl-hydrazones,[3],0.200±0.024 nmol/mg protein
same,IFN-γ level,[4]; C+zinc: standard diet,4.6±0.6 RU/mg protein
same,IL-1 level,[4]; C+zinc: standard diet,3.5±0.7 RU/mg protein
same,IL-4 level,[4]; C+zinc: standard diet,4.6±0.8 RU/mg protein
same,IL-6 level,[4]; C+zinc: standard diet,4.3±0.2 RU/mg protein
same,IL-10 level,[4]; C+zinc: standard diet,4.1±0.5 RU/mg protein
same,IL-12 level,[4]; C+zinc: standard diet,0.3±0.04 RU/mg protein
same,TGF level,[4]; C+zinc: standard diet,4.1±0.4 RU/mg protein
same,IFN-γ level,[4]; DIO+zinc: high-fat diet,4.1±1.2 RU/mg protein
same,IL-1 level,[4]; DIO+zinc: high-fat diet,4.2±0.4 RU/mg protein
same,IL-4 level,[4]; DIO+zinc: high-fat diet,5.6±1.6 RU/mg protein
same,IL-6 level,[4]; DIO+zinc: high-fat diet,5.1±0.4 RU/mg protein
same,IL-10 level,[4]; DIO+zinc: high-fat diet,6.8±1.1 # RU/mg protein
same,IL-12 level,[4]; DIO+zinc: high-fat diet,2.4±0.06 RU/mg protein
same,TGF level,[4]; DIO+zinc: high-fat diet,5.7±0.3 # RU/mg protein
same,TGF level,"[4]; DIO+zinc: high-fat diet, listed as Zn-64 stable isotope in aspartate form",5.7±0.3 RU/mg protein
same,IFN-γ level,[5]; C+zinc: standard diet,5.0±0.8 RU/mg protein
same,IL-1 level,[5]; C+zinc: standard diet,4.9±1.7 RU/mg protein
same,IL-4 level,[5]; C+zinc: standard diet,5.0±0.4 RU/mg protein
same,IL-6 level,[5]; C+zinc: standard diet,5.4±0.3 RU/mg protein
same,IL-10 level,[5]; C+zinc: standard diet,4.9±0.2 RU/mg protein
same,IL-12 level,[5]; C+zinc: standard diet,1.0±0.03 RU/mg protein
same,TGF level,[5]; C+zinc: standard diet,5.1±0.6 RU/mg protein
same,IFN-γ level,[5]; DIO+zinc: high-fat diet,4.9±0.8 RU/mg protein
same,IL-1 level,[5]; DIO+zinc: high-fat diet,5.8±1.8 RU/mg protein
same,IL-4 level,[5]; DIO+zinc: high-fat diet,5.1±1.2 RU/mg protein
same,IL-6 level,[5]; DIO+zinc: high-fat diet,6.1±0.7 RU/mg protein
same,IL-10 level,[5]; DIO+zinc: high-fat diet,5.8±0.8 RU/mg protein
same,IL-12 level,[5]; DIO+zinc: high-fat diet,1.99±0.01 RU/mg protein
same,TGF level,[5]; DIO+zinc: high-fat diet,5.2±0.9 RU/mg protein
same,alkaline phosphatase activity,[6],higher than both in the group of diet-induced obesity models and in the control group
same,effect on albumin values,[7],no effect
same,Glucose levels,[8]; C+zinc: standard diet,4.7 ± 0.2 mmol/L
same,Glucose levels,[8]; DIO+zinc: high-fat diet,4.9 ± 0.2 mmol/L
same,morphology of exocrine cells of the pancreas,"[9]; rats fed a standard diet, hematoxylin & eosin",did not change
same,"cross-sectional surface area of the islets of Langerhans, increase compared with the obesity group",[9]; rats having obesity,43%
same,"cross-sectional surface area of the islets of Langerhans, lower than the control value",[9]; rats having obesity,29%
same,"cross-sectional surface area of the islets of Langerhans, decrease compared with the control group",[9]; rats that ate a standard diet,39%
same,Indoleamine dioxygenase activity,[10]; C+zinc: standard diet,2150 ± 231 µmol/mg protein
same,Monoamine oxidase activity,[10]; C+zinc: standard diet,3.82 ±0.07 RU/mg protein
same,Serotonin,[10]; C+zinc: standard diet,7.41 ± 0.54 µg/g
same,Tryptophan,[10]; C+zinc: standard diet,154.7 ± 13.6 µg/g
same,Tryptophan decarboxylase activity,[10]; C+zinc: standard diet,0.79 ± 0.22 RU/mg protein
same,Tryptophan hydroxylase activity,[10]; C+zinc: standard diet,375 ± 61 RU/mg protein
same,Indoleamine dioxygenase activity,[10]; DIO+zinc: high-fat diet,1768 ± 274 µmol/mg protein
same,Monoamine oxidase activity,[10]; DIO+zinc: high-fat diet,1.72 ±0.03 RU/mg protein
same,Serotonin,[10]; DIO+zinc: high-fat diet,9.73 ± 0.82 µg/g
same,Tryptophan,[10]; DIO+zinc: high-fat diet,89.4 ± 8.99 µg/g
same,Tryptophan decarboxylase activity,[10]; DIO+zinc: high-fat diet,0.78 ± 0.19 RU/mg protein
same,Tryptophan hydroxylase activity,[10]; DIO+zinc: high-fat diet,253 ± 58 RU/mg protein
same,Monoamine oxylase activity,[11]; C+zinc: standard diet,2.52±0.03 RU/mg protein
same,Serotonin,[11]; C+zinc: standard diet,10.16 ± 0.62 µg/g
same,Tryptophan,[11]; C+zinc: standard diet,56.12 ± 7.58 µg/g
same,Monoamine oxylase activity,[11]; DIO+zinc: high-fat diet,3.11±0.08 RU/mg protein
same,Serotonin,[11]; DIO+zinc: high-fat diet,6.33 ± 0.51 µg/g
same,Tryptophan,[11]; DIO+zinc: high-fat diet,66.65 ± 9.62 µg/g
same,Indoleamine dioxygenase activity,[12]; C+zinc: standard diet,1178 ± 267 µmol/mg protein
same,Monoamine oxidase activity,[12]; C+zinc: standard diet,0.91 ±0.06 RU/mg protein
same,Serotonin,[12]; C+zinc: standard diet,25.51 ± 2.71 µg/g
same,Tryptophan,[12]; C+zinc: standard diet,87.71 ± 3.41 µg/g
same,Tryptophan decarboxylase activity,[12]; C+zinc: standard diet,1.63 ± 0.41 RU/mg protein
same,Tryptophan hydroxylase activity,[12]; C+zinc: standard diet,291 ± 29 RU/mg protein
same,Indoleamine dioxygenase activity,[12]; DIO+zinc: high-fat diet,2007 ± 175 µmol/mg protein
same,Monoamine oxidase activity,[12]; DIO+zinc: high-fat diet,0.99±0.08 RU/mg protein
same,Serotonin,[12]; DIO+zinc: high-fat diet,20.1 ± 3.21 µg/g
same,Tryptophan,[12]; DIO+zinc: high-fat diet,31.56 ± 2.14 µg/g
same,Tryptophan decarboxylase activity,[12]; DIO+zinc: high-fat diet,1.86 ± 0.37 RU/mg protein
same,Tryptophan hydroxylase activity,[12]; DIO+zinc: high-fat diet,286 ± 17 RU/mg protein
same,Superoxide dismutase activity,[13],4.5±0.43 # RU/ min per mg protein
same,Catalase activity,[14],0.48±0.02 µmol H2O2/min per mg protein
same,serum insulin levels at day 7 after the withdrawal,[15],increased
same,serum insulin levels on the first day after the drug withdrawal,[15],slightly higher than in the group of intact animals
same,serum insulin levels at day 7 after the withdrawal,[15]; listed as zinc isotope,significant increase
same,body weight of rats,[16],significant increase
same,area of islets of Langerhans compared to the control group and the zinc acetate group,[17],significant increase
same,accumulation of zinc in the kidney and liver tissues,[18],significantly increased
same,"area of collagen fiber deposits, increased by a factor versus the control group",[19]; obesity group treated,6
same,increase in the area of deposition of collagen fibers,[19]; rats eating a standard diet,2 fold
same,Amount of food consumed,[20]; C+zinc: standard diet,32 g/day
same,Calorie content of food,[20]; C+zinc: standard diet,490 kJ/day
same,Weight gain as of the end of the experiment,[20]; C+zinc: standard diet,59%
same,BMI,[20]; C+zinc: standard diet,0.59 g/cm^2
same,Amount of food consumed,[20]; DIO+zinc: high-fat diet,29 g/day
same,Calorie content of food,[20]; DIO+zinc: high-fat diet,823 kJ/day
same,Weight gain as of the end of the experiment,[20]; DIO+zinc: high-fat diet,62%
same,BMI,[20]; DIO+zinc: high-fat diet,0.65 g/cm^2
"CC(=O)[O-].CC(=O)[O-].[Zn+2] [Zn acetate, Zn(CH3COO)2, reference compound]",glucose levels in the glucose tolerance test compared with the control group,[1],"also dropped, though not so strongly"
same,"Glucose, 0 min (1 h after effector administration)","[1]; individual animals, dose: 5 mg/kg in a volume of 2 ml, fast overnight, 5 mg/kg",4.6 and 5.2 (2×) and 4.9 and 5.1
same,"Glucose, 60 min (1 h after glucose administration)","[1]; individual animals, dose: 5 mg/kg in a volume of 2 ml, glucose 3 g/kg body weight in 2 ml, 5 mg/kg",7.2 (2×) and 6.9 and 7.3 and 6.8
same,serum insulin levels at day 7 after the withdrawal,[15],drop in the insulin levels to the value of those of intact/control animals
same,serum insulin levels on the first day after the drug withdrawal,[15],significant increase
same,accumulation of zinc in the kidney and liver tissues,[18],significantly increased
